± gives the expanded uncertainty stated by the source.
Experiment: φn = volume fraction of the nth substance listed
Conditions: Liquid, φ1 = 0.55

CC(O)CO (centres undefined) [1,2-propanediol] + O
Conditions | specific volume [m3/kg]
273.15 K, 100 kPa, Vibrating tube method | 0.0009499 ± 2.3e-07
274.15 K, 100 kPa, Vibrating tube method | 0.0009505 ± 2.3e-07
275.15 K, 100 kPa, Vibrating tube method | 0.000951 ± 2.3e-07
276.15 K, 100 kPa, Vibrating tube method | 0.0009516 ± 2.3e-07
277.15 K, 100 kPa, Vibrating tube method | 0.0009521 ± 2.3e-07
278.15 K, 100 kPa, Vibrating tube method | 0.0009527 ± 2.3e-07
279.15 K, 100 kPa, Vibrating tube method | 0.0009533 ± 2.3e-07
280.15 K, 100 kPa, Vibrating tube method | 0.0009539 ± 2.3e-07
281.15 K, 100 kPa, Vibrating tube method | 0.0009544 ± 2.3e-07
282.15 K, 100 kPa, Vibrating tube method | 0.000955 ± 2.3e-07
283.15 K, 100 kPa, Vibrating tube method | 0.0009556 ± 2.3e-07
284.15 K, 100 kPa, Vibrating tube method | 0.0009562 ± 2.3e-07
285.16 K, 100 kPa, Vibrating tube method | 0.0009568 ± 2.3e-07
286.16 K, 100 kPa, Vibrating tube method | 0.0009574 ± 2.3e-07
287.16 K, 100 kPa, Vibrating tube method | 0.0009579 ± 2.3e-07
287.99 K, 198800 kPa, Bellows volumetry | 0.0009078 ± 2.6e-07
288 K, 100100 kPa, Bellows volumetry | 0.0009305 ± 2.7e-07
288.03 K, 49500 kPa, Bellows volumetry | 0.0009439 ± 2.7e-07
288.04 K, 148900 kPa, Bellows volumetry | 0.0009188 ± 2.6e-07
288.11 K, 248600 kPa, Bellows volumetry | 0.0008977 ± 2.6e-07
288.11 K, 298400 kPa, Bellows volumetry | 0.0008885 ± 2.6e-07
288.12 K, 49600 kPa, Bellows volumetry | 0.0009432 ± 2.7e-07
288.12 K, 198700 kPa, Bellows volumetry | 0.000907 ± 2.6e-07
288.12 K, 348400 kPa, Bellows volumetry | 0.0008794 ± 2.6e-07
288.13 K, 100 kPa, Vibrating tube method | 0.0009585 ± 2.3e-07
288.13 K, 98100 kPa, Bellows volumetry | 0.0009301 ± 2.7e-07
288.13 K, 148600 kPa, Bellows volumetry | 0.0009182 ± 2.6e-07
288.16 K, 100 kPa, Vibrating tube method | 0.0009585 ± 2.3e-07
288.22 K, 249300 kPa, Bellows volumetry | 0.000897 ± 2.6e-07
288.3 K, 100900 kPa, Bellows volumetry | 0.0009295 ± 2.7e-07
288.31 K, 149300 kPa, Bellows volumetry | 0.0009178 ± 2.6e-07
288.31 K, 201100 kPa, Bellows volumetry | 0.0009066 ± 2.6e-07
288.31 K, 300500 kPa, Bellows volumetry | 0.0008875 ± 2.6e-07
288.31 K, 348700 kPa, Bellows volumetry | 0.0008793 ± 2.6e-07
288.32 K, 100 kPa, Vibrating tube method | 0.0009586 ± 2.3e-07
288.33 K, 49800 kPa, Bellows volumetry | 0.0009434 ± 2.7e-07
288.33 K, 249400 kPa, Bellows volumetry | 0.0008969 ± 2.6e-07
288.35 K, 350000 kPa, Bellows volumetry | 0.0008796 ± 2.6e-07
288.36 K, 299200 kPa, Bellows volumetry | 0.0008882 ± 2.6e-07
289.16 K, 100 kPa, Vibrating tube method | 0.0009591 ± 2.3e-07
290.16 K, 100 kPa, Vibrating tube method | 0.0009597 ± 2.3e-07
291.15 K, 100 kPa, Vibrating tube method | 0.0009603 ± 2.3e-07
292.15 K, 100 kPa, Vibrating tube method | 0.000961 ± 2.3e-07
293.15 K, 100 kPa, Vibrating tube method | 0.0009616 ± 2.3e-07
294.15 K, 100 kPa, Vibrating tube method | 0.0009622 ± 2.3e-07
295.15 K, 100 kPa, Vibrating tube method | 0.0009628 ± 2.3e-07
296.16 K, 100 kPa, Vibrating tube method | 0.0009634 ± 2.3e-07
297.16 K, 100 kPa, Vibrating tube method | 0.0009641 ± 2.3e-07
298.16 K, 100 kPa, Vibrating tube method | 0.0009647 ± 2.3e-07
299.16 K, 100 kPa, Vibrating tube method | 0.0009653 ± 2.3e-07
300.16 K, 100 kPa, Vibrating tube method | 0.000966 ± 2.3e-07
301.16 K, 100 kPa, Vibrating tube method | 0.0009666 ± 2.3e-07
302.16 K, 100 kPa, Vibrating tube method | 0.0009673 ± 2.3e-07
303.16 K, 100 kPa, Vibrating tube method | 0.0009679 ± 2.3e-07
304.16 K, 100 kPa, Vibrating tube method | 0.0009685 ± 2.3e-07
305.16 K, 100 kPa, Vibrating tube method | 0.0009692 ± 2.3e-07
306.16 K, 100 kPa, Vibrating tube method | 0.0009699 ± 2.3e-07
307.15 K, 100 kPa, Vibrating tube method | 0.0009705 ± 2.3e-07
308.15 K, 100 kPa, Vibrating tube method | 0.0009712 ± 2.3e-07
309.15 K, 100 kPa, Vibrating tube method | 0.0009719 ± 2.3e-07
310.15 K, 100 kPa, Vibrating tube method | 0.0009725 ± 2.3e-07
311.15 K, 100 kPa, Vibrating tube method | 0.0009732 ± 2.3e-07
312.15 K, 100 kPa, Vibrating tube method | 0.0009739 ± 2.3e-07
313.15 K, 100 kPa, Vibrating tube method | 0.0009746 ± 2.3e-07

From the NIST ThermoML archive (doi:10.1021/je9010568)
